PMC11243693, “Synthesis and Biological Evaluation of New Compounds with Nitroimidazole Moiety” (Molecules, 2024)
Values after ≈ are worked out from the molar mass of the structure shown.

tested on: Bacillus subtilis ATCC 6633; assay: Broth microdilution, B. subtilis ATCC 6633; type: cell-based; details: Bs 6633
Experimental: (§1) The antibacterial activity of the obtained thiosemicarbazides and hydrazide–hydrazones was determined by evaluating their ability to inhibit microbial growth in vitro using the broth microdilution method, according to the guidelines of the European Committee on Antimicrobial Susceptibility Testing (EUCAST). The method involved the preparation of microbial suspensions with a standardized density of 0.5 on the McFarland scale (equivalent to 1.5 × 10^8 colony-forming units/mL for bacteria and […] for fungi). A solution of the test substances was then prepared (initial concentration 1000 µg/mL, diluted in sterile Mueller-Hinton broth for bacteria or Mueller-Hinton with 2% glucose for fungi). The test was carried out in 96-well polystyrene flat-bottom plates (Medlab, Poland) with 100 µL of appropriate sterile microbiological medium in each well. The first wells were filled with 200 µL of the test substance, diluted to the initial concentration, and then double-decreasing dilutions were made under aseptic conditions using an automatic pipette. The final step was the addition of a 10-fold diluted microbial suspension of 2 µL. At the same time, the following controls were included: (a) medium control (100 µL of sterile medium without microorganisms added), (b) microbial viability control, (c) test substance control (dilutions without added micro-organisms), (d) positive control of the drug used in the clinic. The plates thus prepared were incubated for 18 ± 2 h at 35 ± 2 °C under conditions optimal for the growth of the test microorganisms. After incubation, the spectrophotometric absorbance at 570 nm in each well of the plate was read. The aim of this part of the study was to determine two parameters: the minimum inhibitory concentration (MIC) and the minimum bactericidal or fungicidal concentration (MBC/MFC) of the test compound. […] The MBC value was determined by adding 5 µL of the contents of each well of the plate to solid sterile MHA or MHA + 2%glc medium for bacteria and fungi, respectively. The area on the plate where 99.9% inhibition of microbial growth was observed indicated the lethal concentration. In addition, the quotient MBC(MFC)/MIC could be determined to assess the nature of the activity of the test substance. If MBC(MFC)/MIC was <4, the test substance was bactericidal/fungicidal, whereas if MBC(MFC)/MIC was ≥4, it was bacteriostatic/fungistatic. Amoxicillin (Glentham Life Sciences, USA) and nystatin (Glentham Life Sciences, USA) were used as the controls for this assay.
(§2) The test was performed either on bacteria, comprising: Gram-positive (Staphylococcus aureus ATCC 25923, Staphylococcus aureus ATCC 6538, Staphylococcus aureus ATCC 43300 methicillin-resistant MRSA, Staphylococcus epidermidis ATCC 12228, Micrococcus luteus ATCC 10240, Bacillus subtilis ATCC 6633, Bacillus cereus ATCC 10876) and Gram-negative (Escherichia coli ATCC 25922, Pseudomonas aeruginosa ATCC 27853, Proteus mirabilis ATCC 12453, Klebsiella pneumoniae ATCC 13883) or yeast (Candida parapsilosis ATCC 22019, Candida glabrata ATCC 90030, Candida krusei ATCC 14243, Candida glabrata ATCC 15126, Candida tropicalis ATCC 1369, Candida auris CDC B11903, Candida lusitaniae ATCC 3449) reference strains from the American Type Culture Collection (ATCC) or the Centers for Disease Control and Prevention (CDC).

Row | SMILES | MBC [µg/mL] | MIC [µg/mL]
1 | Cn1cc([N+](=O)[O-])nc1C(=O)NNC(=S)Nc1cccc(F)c1 [Compound 7] | 250 (≈ 739 µM) | 125 (≈ 369 µM)
2 | Cn1cc([N+](=O)[O-])nc1C(=O)NNC(=S)Nc1ccc(F)cc1 [Compound 8] | 250 (≈ 739 µM) | 250 (≈ 739 µM)

same assay, conditions: Bs 6633; <4 bactericidal, ≥4 bacteriostatic

Row | SMILES | MBC/MIC Ratio
3 | Cn1cc([N+](=O)[O-])nc1C(=O)NNC(=S)Nc1cccc(F)c1 [Compound 7] | 2
4 | Cn1cc([N+](=O)[O-])nc1C(=O)NNC(=S)Nc1ccc(F)cc1 [Compound 8] | 1

tested on: Candida lusitaniae ATCC 3449; assay: Broth microdilution, C. lusitaniae ATCC 3449; type: cell-based; details: Cl 3449
Experimental: as §1, §2

Row | SMILES | MIC [µg/mL]
5 | Cn1cc([N+](=O)[O-])nc1C(=O)NNC(=S)Nc1cccc(F)c1 [Compound 7] | >1000
6 | Cn1cc([N+](=O)[O-])nc1C(=O)NNC(=S)Nc1ccc(F)cc1 [Compound 8] | >1000

tested on: Micrococcus luteus ATCC 10240; assay: Broth microdilution, M. luteus ATCC 10240; type: cell-based; details: Ml 10240
Experimental: as §1, §2

Row | SMILES | MBC [µg/mL] | MIC [µg/mL]
7 | Cn1cc([N+](=O)[O-])nc1C(=O)NNC(=S)Nc1cccc(F)c1 [Compound 7] | 250 (≈ 739 µM) | 250 (≈ 739 µM)
8 | Cn1cc([N+](=O)[O-])nc1C(=O)NNC(=S)Nc1ccc(F)cc1 [Compound 8] | 500 (≈ 1480 µM) | 250 (≈ 739 µM)

same assay, conditions: Ml 10240; <4 bactericidal, ≥4 bacteriostatic

Row | SMILES | MBC/MIC Ratio
9 | Cn1cc([N+](=O)[O-])nc1C(=O)NNC(=S)Nc1cccc(F)c1 [Compound 7] | 1
10 | Cn1cc([N+](=O)[O-])nc1C(=O)NNC(=S)Nc1ccc(F)cc1 [Compound 8] | 2

tested on: Staphylococcus epidermidis ATCC 12228; assay: Broth microdilution, S. epidermidis ATCC 12228; type: cell-based; details: Se 12228
Experimental: as §1, §2

Row | SMILES | MBC [µg/mL] | MIC [µg/mL]
11 | Cn1cc([N+](=O)[O-])nc1C(=O)NNC(=S)Nc1cccc(F)c1 [Compound 7] | >1000 | 250 (≈ 739 µM)
12 | Cn1cc([N+](=O)[O-])nc1C(=O)NNC(=S)Nc1ccc(F)cc1 [Compound 8] | 500 (≈ 1480 µM) | 500 (≈ 1480 µM)

same assay, conditions: Se 12228; <4 bactericidal, ≥4 bacteriostatic

Row | SMILES | MBC/MIC Ratio
13 | Cn1cc([N+](=O)[O-])nc1C(=O)NNC(=S)Nc1ccc(F)cc1 [Compound 8] | 1

tested on: Staphylococcus aureus ATCC 25923; assay: Broth microdilution, S. aureus ATCC 25923; type: cell-based; details: Sa 25923
Experimental: as §1, §2

Row | SMILES | MBC [µg/mL] | MIC [µg/mL]
14 | Cn1cc([N+](=O)[O-])nc1C(=O)NNC(=S)Nc1cccc(F)c1 [Compound 7] | >1000 | 250 (≈ 739 µM)
15 | Cn1cc([N+](=O)[O-])nc1C(=O)NNC(=S)Nc1ccc(F)cc1 [Compound 8] | >1000 | 250 (≈ 739 µM)

tested on: Candida glabrata ATCC 15126; assay: Broth microdilution, C. glabrata ATCC 15126; type: cell-based; details: Cg 15126
Experimental: as §1, §2

Row | SMILES | MIC [µg/mL]
16 | Cn1cc([N+](=O)[O-])nc1C(=O)NNC(=S)Nc1cccc(F)c1 [Compound 7] | >1000
17 | Cn1cc([N+](=O)[O-])nc1C(=O)NNC(=S)Nc1ccc(F)cc1 [Compound 8] | >1000

tested on: Staphylococcus aureus ATCC 6538; assay: Broth microdilution, S. aureus ATCC 6538; type: cell-based; details: Sa 6538
Experimental: as §1, §2

Row | SMILES | MBC [µg/mL] | MIC [µg/mL]
18 | Cn1cc([N+](=O)[O-])nc1C(=O)NNC(=S)Nc1cccc(F)c1 [Compound 7] | >1000 | 500 (≈ 1480 µM)
19 | Cn1cc([N+](=O)[O-])nc1C(=O)NNC(=S)Nc1ccc(F)cc1 [Compound 8] | – | >1000

tested on: Candida krusei ATCC 14243; assay: Broth microdilution, C. krusei ATCC 14243; type: cell-based; details: Ck 14243
Experimental: as §1, §2

Row | SMILES | MIC [µg/mL]
20 | Cn1cc([N+](=O)[O-])nc1C(=O)NNC(=S)Nc1cccc(F)c1 [Compound 7] | >1000
21 | Cn1cc([N+](=O)[O-])nc1C(=O)NNC(=S)Nc1ccc(F)cc1 [Compound 8] | >1000

tested on: Staphylococcus aureus ATCC 43300 methicillin-resistant MRSA; assay: Broth microdilution, S. aureus ATCC 43300 MRSA; type: cell-based; details: Sa 43300 MRSA
Experimental: as §1, §2

Row | SMILES | MBC [µg/mL] | MIC [µg/mL]
22 | Cn1cc([N+](=O)[O-])nc1C(=O)NNC(=S)Nc1cccc(F)c1 [Compound 7] | >1000 | 500 (≈ 1480 µM)
23 | Cn1cc([N+](=O)[O-])nc1C(=O)NNC(=S)Nc1ccc(F)cc1 [Compound 8] | >1000 | 1000 (≈ 2960 µM)

tested on: Candida auris CDC B11903; assay: Broth microdilution, C. auris CDC B11903; type: cell-based; details: Ca B11903
Experimental: as §1, §2

Row | SMILES | MIC [µg/mL]
24 | Cn1cc([N+](=O)[O-])nc1C(=O)NNC(=S)Nc1cccc(F)c1 [Compound 7] | >1000
25 | Cn1cc([N+](=O)[O-])nc1C(=O)NNC(=S)Nc1ccc(F)cc1 [Compound 8] | >1000

tested on: Candida tropicalis ATCC 1369; assay: Broth microdilution, C. tropicalis ATCC 1369; type: cell-based; details: Ct 1369
Experimental: as §1, §2

Row | SMILES | MFC [µg/mL] | MIC [µg/mL]
26 | Cn1cc([N+](=O)[O-])nc1C(=O)NNC(=S)Nc1cccc(F)c1 [Compound 7] | >1000 | 250 (≈ 739 µM)
27 | Cn1cc([N+](=O)[O-])nc1C(=O)NNC(=S)Nc1ccc(F)cc1 [Compound 8] | >1000 | 250 (≈ 739 µM)

tested on: Candida glabrata ATCC 90030; assay: Broth microdilution, C. glabrata ATCC 90030; type: cell-based; details: Cg 90030
Experimental: as §1, §2

Row | SMILES | MIC [µg/mL]
28 | Cn1cc([N+](=O)[O-])nc1C(=O)NNC(=S)Nc1cccc(F)c1 [Compound 7] | >1000
29 | Cn1cc([N+](=O)[O-])nc1C(=O)NNC(=S)Nc1ccc(F)cc1 [Compound 8] | >1000

tested on: Bacillus cereus ATCC 10876; assay: Broth microdilution, B. cereus ATCC 10876; type: cell-based; details: Bc 10876
Experimental: as §1, §2

Row | SMILES | MBC [µg/mL] | MIC [µg/mL]
30 | Cn1cc([N+](=O)[O-])nc1C(=O)NNC(=S)Nc1cccc(F)c1 [Compound 7] | 500 (≈ 1480 µM) | 500 (≈ 1480 µM)
31 | Cn1cc([N+](=O)[O-])nc1C(=O)NNC(=S)Nc1ccc(F)cc1 [Compound 8] | 1000 (≈ 2960 µM) | 500 (≈ 1480 µM)

same assay, conditions: Bc 10876; <4 bactericidal, ≥4 bacteriostatic

Row | SMILES | MBC/MIC Ratio
32 | Cn1cc([N+](=O)[O-])nc1C(=O)NNC(=S)Nc1cccc(F)c1 [Compound 7] | 1
33 | Cn1cc([N+](=O)[O-])nc1C(=O)NNC(=S)Nc1ccc(F)cc1 [Compound 8] | 2

tested on: Candida parapsilosis ATCC 22019; assay: Broth microdilution, C. parapsilosis ATCC 22019; type: cell-based; details: Cp 22019
Experimental: as §1, §2

Row | SMILES | MIC [µg/mL] | MFC [µg/mL]
34 | Cn1cc([N+](=O)[O-])nc1C(=O)NNC(=S)Nc1cccc(F)c1 [Compound 7] | >1000 | –
35 | Cn1cc([N+](=O)[O-])nc1C(=O)NNC(=S)Nc1ccc(F)cc1 [Compound 8] | 1000 (≈ 2960 µM) | >1000
